# Source: patent US8580814B2, “Methods of using (+)-1,4-dihydro-7-[(3S,4S)-3-methoxy-4-(methylamino)-1-pyrrolidinyl]-4- oxo-1-(2-thiazolyl)-1,8-naphthyridine-3-carboxylic acid for treatment of cancer” (priority 2006, dated 2013)
# Values joined by “and” are separate entries in the source; they are usually repeats but may differ in a detail not shown here. Identical values can stand only once.
# What was measured:
# refractory solid tumors = experiment: Clinical activity in patients with advanced solid tumors; type: in vivo, human; design: key to Best Response: partial response (PR); stable disease SD; Partial/Minor Responses (PR/MR); conditions: for Iliac node: Baseline 5.5; for RMLL Lung / Rectosigmoid: Baseline 2.5; for RML Lung: Baseline 3.9; for RUL Lung: Baseline 4.7; for Liver met: Baseline 7.4
# Procedure: The administered dose of SNS-595 can be delivered as a single dose such as, for example, an IV push of 10-15 minutes duration (e.g. a single bolus injection) or over time such as, for example, a 24-hour period (e.g., continuous infusion over time or divided bolus doses over time) and is repeated as necessary, for example, until the patient experiences stable disease or regression, or until the patient experiences disease progression or unacceptable toxicity. For example, stable disease for solid tumors generally means that the perpendicular diameter of measurable lesions has not increased by 25% or more from the last measurement. See e.g., Response Evaluation Criteria in Solid Tumors (RECIST) Guidelines, Journal of the National Cancer Institute 92(3): 205-216 (2000). Stable disease or lack thereof is determined by methods known in the art such as evaluation of patient symptoms, physical examination, visualization of the tumor that has been imaged using X-ray, CAT, PET, or MRI scan and other commonly accepted evaluation modalities.
# SNS-595 was administered to patients with advanced solid cancers as an IV infusion over 10 minutes on 2 schedules. In the first schedule (A), a weekly dose of SNS-595 was administered for three weeks followed by at least 7 days off (qwk×3). In the second schedule (B), a dose of SNS-595 was administered once every three weeks (q3wk).
# In both schedules, the starting dose of SNS-595 was 3 mg/m^2, and doses were escalated by sequential cohorts of 3. The doses were doubled until the first related adverse event at or above Grade 2 or until the first abnormal lab value. The doses were then escalated by a modified Fibonacci schema.
# In study A, 21 patients (9 male, 12 female) were treated in 6 cohorts (dose range 3-24 mg/m^2/wk). In study B, 41 (25 male, 16 female) patients were treated in 9 cohorts (dose range 3-75 mg/m^2/wk). The median ages were 61 yrs (Study A) and 59 yrs (Study B), sex 12F/9M (Study A), 16F/25M (Study B), all patients had baseline European Cooperative Oncology Group Performance Status (ECOG PS) 0-2. Patient eligibility included refractory solid tumors and adequate organ function.
# HCT-116 = experiment: Timing of apoptosis (caspase-3 activation); type: cell-based; conditions: Cell Line HCT-116; dosed at 30 fold above the EC50 for cytotoxicity
# [1] = both studies, advanced solid cancers
# [2] = initial dosage 3 mg/m^2, q3wk, Lung
# [3] = initial dosage 6 mg/m^2, q3wk, Renal Cell
# [4] = initial dosage 6 mg/m^2, qwk x3, Renal Cell
# [5] = initial dosage 12 mg/m^2, q3wk, Lung
# [6] = initial dosage 12 mg/m^2, qwk x3, Leiomyosarcoma
# [7] = initial dosage 12 mg/m^2, qwk x3, Melanoma
# [8] = initial dosage 15 mg/m^2, qwk x3, Mesothelioma (two patients)
# [9] = initial dosage 15 mg/m^2, qwk x3, Nasopharyngeal
# [10] = initial dosage 24 mg/m^2, q3wk, Adenocarcinoma (unknown origin)
# [11] = initial dosage 24 mg/m^2, qwk x3, Salivary Gland
# [12] = initial dosage 36 mg/m^2, q3wk, Colon
# [13] = initial dosage 36 mg/m^2, q3wk, Ovarian
# [14] = initial dosage 48 mg/m^2, q3wk, Lung
# [15] = initial dosage 48 mg/m^2, q3wk, Ovarian (two patients)
# [16] = initial dosage 60 mg/m^2, q3wk, Neuroendocrine
# [17] = initial dosage 60 mg/m^2, q3wk, Ovarian
# [18] = initial dosage 75 mg/m^2, q3wk, Müllerian
structure (smiles),measurement,setting,value
"CN[C@H]1CN(c2ccc3c(=O)c(C(=O)O)cn(-c4nccs4)c3n2)C[C@@H]1OC [SNS-595, (+)-1,4-dihydro-7-[(3S,4S)-3-methoxy-4-(methylamino)-1-pyrrolidinyl]-4-oxo-1-(2-thiazolyl)-1,8-naphthyridine-3-carboxylic acid]",P-aortic node,"refractory solid tumors; PR patient, Ovarian, C2, Baseline 1.7",1.6 cm
same,Aortic node,"refractory solid tumors; PR patient, Ovarian, C2, Baseline 2.4",2.0 cm
same,Iliac node,"refractory solid tumors; PR patient, Ovarian, C2",5.0 cm
same,CA125,"refractory solid tumors; PR patient, Ovarian, C2, Baseline 467",272 U/mL
same,P-aortic node,"refractory solid tumors; PR patient, Ovarian, C4, Baseline 1.7",1.5 cm
same,Aortic node,"refractory solid tumors; PR patient, Ovarian, C4, Baseline 2.4",2.2 cm
same,Iliac node,"refractory solid tumors; PR patient, Ovarian, C4",4.7 cm
same,CA125,"refractory solid tumors; PR patient, Ovarian, C4, Baseline 467",176 U/mL
same,P-aortic node,"refractory solid tumors; PR patient, Ovarian, C6, Baseline 1.7",1.3 cm
same,Aortic node,"refractory solid tumors; PR patient, Ovarian, C6, Baseline 2.4",2.0 cm
same,Iliac node,"refractory solid tumors; PR patient, Ovarian, C6",3.9 cm
same,CA125,"refractory solid tumors; PR patient, Ovarian, C6, Baseline 467",120 U/mL
same,RMLL Lung,"refractory solid tumors; SD (MR) patient, Müllerian, C2",2.5 cm
same,RML Lung,"refractory solid tumors; SD (MR) patient, Müllerian, C2",3.9 cm
same,RUL Lung,"refractory solid tumors; SD (MR) patient, Müllerian, C2",4.5 cm
same,RMLL Lung,"refractory solid tumors; SD (MR) patient, Müllerian, C4",2.5 cm
same,RML Lung,"refractory solid tumors; SD (MR) patient, Müllerian, C4",3.7 cm
same,RUL Lung,"refractory solid tumors; SD (MR) patient, Müllerian, C4",4.5 cm
same,RMLL Lung,"refractory solid tumors; SD (MR) patient, Müllerian, C6",2.6 cm
same,RML Lung,"refractory solid tumors; SD (MR) patient, Müllerian, C6",2.4 cm
same,RUL Lung,"refractory solid tumors; SD (MR) patient, Müllerian, C6",5.0 cm
same,Left upper lobe nodule,"refractory solid tumors; SD (MR) patient, Nasopharyngeal, C2, Baseline 1.1",1.0 cm
same,Rt upper lobe nodule 2,"refractory solid tumors; SD (MR) patient, Nasopharyngeal, C2, Baseline 1.5",1.3 cm
same,Lingular nodule,"refractory solid tumors; SD (MR) patient, Nasopharyngeal, C2, Baseline 1.6",1.5
same,Rt upper lobe nodule 1,"refractory solid tumors; SD (MR) patient, Nasopharyngeal, C2, Baseline 2.3",1.5 cm
same,Aortic node,"refractory solid tumors; SD (MR) patient, Ovarian (first), C2, Baseline 1.7",1.5 cm
same,P-aortic node,"refractory solid tumors; SD (MR) patient, Ovarian (first), C2, Baseline 1.8",1.1 cm
same,Liver met,"refractory solid tumors; SD (MR) patient, Ovarian (first), C2",6.9 cm
same,CA125,"refractory solid tumors; SD (MR) patient, Ovarian (first), C2, Baseline 567",811 U/mL
same,Aortic node,"refractory solid tumors; SD (MR) patient, Ovarian (first), C4, Baseline 1.7",1.2 cm
same,P-aortic node,"refractory solid tumors; SD (MR) patient, Ovarian (first), C4, Baseline 1.8",1.1 cm
same,Liver met,"refractory solid tumors; SD (MR) patient, Ovarian (first), C4",5.7 cm
same,CA125,"refractory solid tumors; SD (MR) patient, Ovarian (first), C4, Baseline 567",419 U/mL
same,Aortic node,"refractory solid tumors; SD (MR) patient, Ovarian (first), C6, Baseline 1.7",1.8 cm
same,P-aortic node,"refractory solid tumors; SD (MR) patient, Ovarian (first), C6, Baseline 1.8",1.2 cm
same,Liver met,"refractory solid tumors; SD (MR) patient, Ovarian (first), C6",5.7 cm
same,CA125,"refractory solid tumors; SD (MR) patient, Ovarian (first), C6, Baseline 567",274 U/mL
same,3 mets,"refractory solid tumors; SD (MR) patient, Ovarian (second)",3 mets unchanged
same,Rectosigmoid,"refractory solid tumors; SD (MR) patient, Ovarian (second), C2",0.0 cm
same,CA125,"refractory solid tumors; SD (MR) patient, Ovarian (second), C2, Baseline 50",18 U/mL
same,Rectosigmoid,"refractory solid tumors; SD (MR) patient, Ovarian (second), C4",0.0 cm
same,CA125,"refractory solid tumors; SD (MR) patient, Ovarian (second), C4, Baseline 50",16 U/mL
same,Rectosigmoid,"refractory solid tumors; SD (MR) patient, Ovarian (second), C6",0.0 cm
same,CA125,"refractory solid tumors; SD (MR) patient, Ovarian (second), C6, Baseline 50",15 U/mL
same,Best Response,"refractory solid tumors; Table 11, Müllerian",SD (MR)
same,Best Response,"refractory solid tumors; Table 11, Nasopharyngeal",SD (MR)
same,Best Response,"refractory solid tumors; Table 11, Ovarian (three patients)",SD (MR) and PR
same,patients that achieved partial responses,refractory solid tumors; [1],two patients
same,patients that achieved stable disease for over sixteen weeks,refractory solid tumors; [1],seventeen patients
same,Best Response,refractory solid tumors; [2],SD
same,Weeks on Therapy,refractory solid tumors; [2],18 Weeks
same,Best Response,refractory solid tumors; [3],SD
same,Weeks on Therapy,refractory solid tumors; [3],18 Weeks
same,Best Response,refractory solid tumors; [4],SD
same,Weeks on Therapy,refractory solid tumors; [4],16 Weeks
same,Best Response,refractory solid tumors; [5],SD
same,Weeks on Therapy,refractory solid tumors; [5],53 Weeks
same,Best Response,refractory solid tumors; [6],SD
same,Weeks on Therapy,refractory solid tumors; [6],16 Weeks
same,Best Response,refractory solid tumors; [7],SD
same,Weeks on Therapy,refractory solid tumors; [7],16 Weeks
same,Best Response,refractory solid tumors; [8],PR and SD
same,Weeks on Therapy,refractory solid tumors; [8],28 Weeks and 18 Weeks
same,Best Response,refractory solid tumors; [9],SD
same,Weeks on Therapy,refractory solid tumors; [9],16 Weeks
same,Best Response,refractory solid tumors; [10],SD
same,Weeks on Therapy,refractory solid tumors; [10],18 Weeks
same,Best Response,refractory solid tumors; [11],SD
same,Weeks on Therapy,refractory solid tumors; [11],24 Weeks
same,Best Response,refractory solid tumors; [12],SD
same,Weeks on Therapy,refractory solid tumors; [12],33 Weeks
same,Best Response,refractory solid tumors; [13],SD
same,Weeks on Therapy,refractory solid tumors; [13],18 Weeks
same,Best Response,refractory solid tumors; [14],SD
same,Weeks on Therapy,refractory solid tumors; [14],46 Weeks
same,Best Response,refractory solid tumors; [15],PR and SD
same,Weeks on Therapy,refractory solid tumors; [15],24 Weeks and 30 Weeks
same,Best Response,refractory solid tumors; [16],SD
same,Weeks on Therapy,refractory solid tumors; [16],58 Weeks
same,Best Response,refractory solid tumors; [17],SD
same,Weeks on Therapy,refractory solid tumors; [17],33 Weeks
same,Best Response,refractory solid tumors; [18],SD
same,Weeks on Therapy,refractory solid tumors; [18],46 Weeks
same,"stable disease SD, range",refractory solid tumors; study A (qwk×3),16-24 wks
same,patients that achieved partial response (PR),"refractory solid tumors; study A (qwk×3), 21 patients",one patient
same,patients that achieved stable disease SD,"refractory solid tumors; study A (qwk×3), 21 patients",six
same,patients with PR as best response,"refractory solid tumors; study B (q3wk), 41 patients",one PR
same,patients with SD as best response,"refractory solid tumors; study B (q3wk), 41 patients",11
same,Timing of apoptosis: fraction of cell cycle to achieve 50% maximal caspase-3 activation,HCT-116,0.4
